# Assay results from BigSolDB 2.1.
smiles,measurement,setting,value
Nc1nc(NC2CC2)c2ncn([C@H]3C=C[C@@H](CO)C3)c2n1,solubility (mole fraction),"in acetone, 278.15 K",0.00115
same,solubility (mole fraction),"in acetone, 283.15 K",0.00123
same,solubility (mole fraction),"in acetone, 288.15 K",0.00131
same,solubility (mole fraction),"in acetone, 293.15 K",0.00142
same,solubility (mole fraction),"in acetone, 298.15 K",0.00155
same,solubility (mole fraction),"in acetone, 303.15 K",0.00169
same,solubility (mole fraction),"in acetone, 308.15 K",0.00183
same,solubility (mole fraction),"in acetone, 313.15 K",0.00205
same,solubility (mole fraction),"in acetone, 318.15 K",0.00225
same,solubility (mole fraction),"in acetone, 323.15 K",0.00247
same,solubility (mole fraction),"in ethanol, 278.15 K",0.00601
same,solubility (mole fraction),"in ethanol, 283.15 K",0.00651
same,solubility (mole fraction),"in ethanol, 288.15 K",0.00716
same,solubility (mole fraction),"in ethanol, 293.15 K",0.00803
same,solubility (mole fraction),"in ethanol, 298.15 K",0.00903
same,solubility (mole fraction),"in ethanol, 303.15 K",0.0104
same,solubility (mole fraction),"in ethanol, 308.15 K",0.0123
same,solubility (mole fraction),"in ethanol, 313.15 K",0.0142
same,solubility (mole fraction),"in ethanol, 318.15 K",0.0162
same,solubility (mole fraction),"in ethanol, 323.15 K",0.0184
same,solubility (mole fraction),"in ethyl acetate, 278.15 K",0.000631
same,solubility (mole fraction),"in ethyl acetate, 283.15 K",0.000705
same,solubility (mole fraction),"in ethyl acetate, 288.15 K",0.000796
same,solubility (mole fraction),"in ethyl acetate, 293.15 K",0.000906
same,solubility (mole fraction),"in ethyl acetate, 298.15 K",0.00102
same,solubility (mole fraction),"in ethyl acetate, 303.15 K",0.00112
same,solubility (mole fraction),"in ethyl acetate, 308.15 K",0.00127
same,solubility (mole fraction),"in ethyl acetate, 313.15 K",0.00147
same,solubility (mole fraction),"in ethyl acetate, 318.15 K",0.00168
same,solubility (mole fraction),"in ethyl acetate, 323.15 K",0.00192
same,solubility (mole fraction),"in isobutanol, 278.15 K",0.00772
same,solubility (mole fraction),"in isobutanol, 283.15 K",0.00823
same,solubility (mole fraction),"in isobutanol, 288.15 K",0.00896
same,solubility (mole fraction),"in isobutanol, 293.15 K",0.0101
same,solubility (mole fraction),"in isobutanol, 298.15 K",0.0113
same,solubility (mole fraction),"in isobutanol, 303.15 K",0.0121
same,solubility (mole fraction),"in isobutanol, 308.15 K",0.0131
same,solubility (mole fraction),"in isobutanol, 313.15 K",0.0144
same,solubility (mole fraction),"in isobutanol, 318.15 K",0.0164
same,solubility (mole fraction),"in isobutanol, 323.15 K",0.0182
same,solubility (mole fraction),"in isopropanol, 278.15 K",0.00451
same,solubility (mole fraction),"in isopropanol, 283.15 K",0.00483
same,solubility (mole fraction),"in isopropanol, 288.15 K",0.00534
same,solubility (mole fraction),"in isopropanol, 293.15 K",0.006
same,solubility (mole fraction),"in isopropanol, 298.15 K",0.00655
same,solubility (mole fraction),"in isopropanol, 303.15 K",0.00744
same,solubility (mole fraction),"in isopropanol, 308.15 K",0.00855
same,solubility (mole fraction),"in isopropanol, 313.15 K",0.0096
same,solubility (mole fraction),"in isopropanol, 318.15 K",0.0111
same,solubility (mole fraction),"in isopropanol, 323.15 K",0.0123
same,solubility (mole fraction),"in methanol, 278.15 K",0.00623
same,solubility (mole fraction),"in methanol, 283.15 K",0.00688
same,solubility (mole fraction),"in methanol, 288.15 K",0.00825
same,solubility (mole fraction),"in methanol, 293.15 K",0.00965
same,solubility (mole fraction),"in methanol, 298.15 K",0.0109
same,solubility (mole fraction),"in methanol, 303.15 K",0.0126
same,solubility (mole fraction),"in methanol, 308.15 K",0.0147
same,solubility (mole fraction),"in methanol, 313.15 K",0.0181
same,solubility (mole fraction),"in methanol, 318.15 K",0.0209
same,solubility (mole fraction),"in methanol, 323.15 K",0.0241
same,solubility (mole fraction),"in methyl acetate, 278.15 K",0.000901
same,solubility (mole fraction),"in methyl acetate, 283.15 K",0.00101
same,solubility (mole fraction),"in methyl acetate, 288.15 K",0.0011
same,solubility (mole fraction),"in methyl acetate, 293.15 K",0.00123
same,solubility (mole fraction),"in methyl acetate, 298.15 K",0.0014
same,solubility (mole fraction),"in methyl acetate, 303.15 K",0.00156
same,solubility (mole fraction),"in methyl acetate, 308.15 K",0.00176
same,solubility (mole fraction),"in methyl acetate, 313.15 K",0.00206
same,solubility (mole fraction),"in methyl acetate, 318.15 K",0.0023
same,solubility (mole fraction),"in methyl acetate, 323.15 K",0.0026
same,solubility (mole fraction),"in n-butanol, 278.15 K",0.00718
same,solubility (mole fraction),"in n-butanol, 283.15 K",0.00798
same,solubility (mole fraction),"in n-butanol, 288.15 K",0.0089
same,solubility (mole fraction),"in n-butanol, 293.15 K",0.0103
same,solubility (mole fraction),"in n-butanol, 298.15 K",0.0117
same,solubility (mole fraction),"in n-butanol, 303.15 K",0.0133
same,solubility (mole fraction),"in n-butanol, 308.15 K",0.0155
same,solubility (mole fraction),"in n-butanol, 313.15 K",0.0177
same,solubility (mole fraction),"in n-butanol, 318.15 K",0.0204
same,solubility (mole fraction),"in n-butanol, 323.15 K",0.0231
same,solubility (mole fraction),"in n-pentanol, 278.15 K",0.00898
same,solubility (mole fraction),"in n-pentanol, 283.15 K",0.0106
same,solubility (mole fraction),"in n-pentanol, 288.15 K",0.012
same,solubility (mole fraction),"in n-pentanol, 293.15 K",0.0134
same,solubility (mole fraction),"in n-pentanol, 298.15 K",0.0153
same,solubility (mole fraction),"in n-pentanol, 303.15 K",0.0169
same,solubility (mole fraction),"in n-pentanol, 308.15 K",0.0195
same,solubility (mole fraction),"in n-pentanol, 313.15 K",0.0226
same,solubility (mole fraction),"in n-pentanol, 318.15 K",0.0248
same,solubility (mole fraction),"in n-pentanol, 323.15 K",0.0277
same,solubility (mole fraction),"in n-propanol, 278.15 K",0.00798
same,solubility (mole fraction),"in n-propanol, 283.15 K",0.0087
same,solubility (mole fraction),"in n-propanol, 288.15 K",0.00952
same,solubility (mole fraction),"in n-propanol, 293.15 K",0.0107
same,solubility (mole fraction),"in n-propanol, 298.15 K",0.0119
same,solubility (mole fraction),"in n-propanol, 303.15 K",0.0136
same,solubility (mole fraction),"in n-propanol, 308.15 K",0.0159
same,solubility (mole fraction),"in n-propanol, 313.15 K",0.0184
same,solubility (mole fraction),"in n-propanol, 318.15 K",0.0211
same,solubility (mole fraction),"in n-propanol, 323.15 K",0.024
same,solubility (mole fraction),"in sec-butanol, 278.15 K",0.00768
same,solubility (mole fraction),"in sec-butanol, 283.15 K",0.00844
same,solubility (mole fraction),"in sec-butanol, 288.15 K",0.00927
same,solubility (mole fraction),"in sec-butanol, 293.15 K",0.0104
same,solubility (mole fraction),"in sec-butanol, 298.15 K",0.0118
same,solubility (mole fraction),"in sec-butanol, 303.15 K",0.0134
same,solubility (mole fraction),"in sec-butanol, 308.15 K",0.015
same,solubility (mole fraction),"in sec-butanol, 313.15 K",0.0172
same,solubility (mole fraction),"in sec-butanol, 318.15 K",0.0197
same,solubility (mole fraction),"in sec-butanol, 323.15 K",0.0222
same,solubility (mole fraction),"in water, 278.15 K",0.000239
same,solubility (mole fraction),"in water, 283.15 K",0.000266
same,solubility (mole fraction),"in water, 288.15 K",0.000295
same,solubility (mole fraction),"in water, 293.15 K",0.000334
same,solubility (mole fraction),"in water, 298.15 K",0.000386
same,solubility (mole fraction),"in water, 303.15 K",0.000436
same,solubility (mole fraction),"in water, 308.15 K",0.0005
same,solubility (mole fraction),"in water, 313.15 K",0.000547
same,solubility (mole fraction),"in water, 318.15 K",0.000649
same,solubility (mole fraction),"in water, 323.15 K",0.000748
